In one test the test system is dermomyotome cells. The experiment in a line: Induction of myotome cells (MYO) from dermomyotome cells. The test is classed as cell-based, human. Particulars: 5 μM CHIR99021, 30 days; number of MYOD- and MYOG-positive cells. As for the experimental part:
We next tried to induce myotome cells directly from dermomyotome cells obtained in the above (3). The medium of the dermomyotome cell culture obtained in (3) was replaced with CDM basal medium supplemented with 5 μM of CHIR99021, and the cell culture was further cultured. The medium was changed every 3 days, and the culture was performed for 30 days. A small amount of cultured cells was collected every 6 days, and the expression of myogenic markers MYOD, MYOG and PAX7 was examined over time. Induction of the myogenic markers was found 18 to 30 days after the replacement of the medium. On the other hand, the expression of the dermomyotome cell marker ALX4 was decreased in a time dependent manner (FIG. 4D). The expression of MYOD and MYOG was also determined by immunocytochemistry. The induction efficiency from dermomyotome cells into myotome cells was estimated at approximately 22% based on the number of MYOD- and MYOG-positive cells.

Another test relates to PAX3-GFP iPS cells. The experiment in a line: Induction of presomitic mesoderm cells (PSM) from human iPS cells, FACS for DLL1 and PAX3-GFP. The settings on record: single factor, 10 μM CHIR99021, CDM basal medium, 4 days. The class given is cell-based. How it is done: Fluorescence-activated cell sorting (FACS) was performed by AriaII (BD) according to the manufacturer's protocol. Intracellular flow cytometry analysis was also performed by AriaII (BD) according to the manufacturer's protocol. Briefly, cells were fixed and permeabilized prior to the antibody staining. The expression rate of each differentiation marker was calculated by comparing that of iPSCs or induced somite cells. To minimize the effect of growth factors secreted from feeder cells or contained in a culture medium, SNL feeders were removed from an iPS cell culture, and human iPS cells were seeded onto matrigel (BD, Bedford, MA, USA) coated dishes (1.3×10^6 cells/10-cm dish). The iPS cells were cultured under feeder-free condition with […]1 medium (STEMCELL Technology, Vancouver, Canada) for 3 days. The iPS cells were then cultured in CDM basal medium supplemented with one of four factors or the appropriate combination of the four factors for 4 days (FIG. 2B). The added factors are as follows. […] To detect the induction efficiency of presomitic mesoderm cells, the cell population positive for DLL1, a surface marker for a presomitic mesoderm cell and the posterior portion of somite, and negative for PAX3-GFP, showing a newly formed and segmented somite cell, were detected by FACS (FIG. 2C). […]

Test [1] deals with DLL1+ presomitic mesoderm cells. The experiment in a line: Induction of somite cells (SM) from presomitic mesoderm cells. The class given is cell-based, human. Particulars: for PAX3-GFP+ cells: four days culture, FACS. As for the experimental part: IPS cells were cultured in SCDF condition of Example 1 for 4 days, and a total of 1.0×10^5 DLL1^+ presomitic mesoderm cells sorted by FACS were seeded onto one well of a matrigel-coated 12-well plate and subsequently underwent the induction of somite cells (FIG. 3A). The induction of somite cells was carried out for 4 days in CDM basal medium supplemented with SB431542 and/or 5 μM CHIR99021. The medium was changed at day 3 of the induction of somite cells. The expression of PAX3-GFP was used as a somite cell marker. The added factors and their concentrations are as follows: • S10: SB431542 10 μM • C1: CHIR99021 1 μM • C5: […]20: FGF2 20 ng/ml • […]: IWR1 10 μM

Another test concerns heterotopic ossification. The settings on record: reported, Hino et al., 2017; cited from earlier work.
The subject of test [2] is somite cell-derived mesenchymal stromal cells induced from FOP-iPS cells. The experiment in a line: 2D chondrogenic induction of FOP-iPS cell-derived mesenchymal stromal cells. Particulars: 5 days. The test is classed as cell-based, human. As for the experimental part: (§1) The GAG content in pellets was quantified with the Blyscan™ Glycosaminoglycan Assay Kit (Biocolor Ltd., Belfast, UK). The DNA content was quantified using the PicoGreen™ dsDNA Quantitation Kit (Invitrogen).
(§2) A total of 1.5×10^5 induced mesenchymal stromal cells or sclerotome cells were suspended in 5 μL of chondrogenic basal. medium (DMEM: F12 (Invitrogen), 1% (v/v) ITS+Premix (BD Biosciences, San Jose, CA, USA), 0.1 μM dexamethasone (WAKO), 0.17 mM L-Ascorbic acid 2-phosphate sesquimagnesium salt hydrate (Sigma), 0.35 mM Proline (Sigma), 0.15% (v/v) glucose (Sigma), 1 mM Na-pyruvate, 2 mM GlutaMax (Invitrogen) and 1% (v/v) FBS), and subsequently transferred to one well of a fibronectin-coated 24-well plate (BD Biosciences). After one hour of incubation at 37° C. in 5% CO2, cells formed micromass.
(§3) Then, the micromass was cultured in 1 ml of chondrogenic basal medium supplemented with 10 ng/ml BMP7 (R&D) and 10 ng/ml TGFβ3 (R&D) with or without 30 ng/ml Activin A (R&D) at 37° C. in 5% CO2 for 5 days.
The micromass induced from somite cell-derived mesenchymal stromal cells from FOP-iPS cells was also cultured in 1 mL of chondrogenic basal medium supplemented with 30 ng/ml Activin A (R&D) with/without 10 nM R667 (Toronto Research Chemicals, Toronto, ON, Canada) or 10 nM Rapamycin (MedChem Express, Monmouth Junction, NJ, USA).
(§4) Differentiation properties of obtained cells were analyzed by RT-qPCR analysis, glycosaminoglycans (GAG) quantification and Alcian Blue staining. Briefly, induced cells were fixed for 30 minutes with 4% paraformaldehyde (WAKO), rinsed with PBS, and then stained overnight with Alcian Blue solution (1% Alcian Blue, pH1) (MUTO PURE CHEMICAL CO., LTD, Tokyo, Japan).

Test [3] relates to somite cell-derived sclerotome cells. The experiment in a line: 2D chondrogenic induction of FOP-iPS cell-derived sclerotome cells. The class given is cell-based, human. Particulars: 30 ng/ml Activin A, 5 days. How it is done:
as §1, §2, §3, §4

For the molecule `Cc1c[nH]c(-c2cnc(NCCNc3ccc(C#N)cn3)nc2-c2ccc(Cl)cc2Cl)n1` [CHIR99021, 6-[2-[4-(2,4-Dichlorophenyl)-5-(4-methyl-1H-imidazol-2-yl)pyrimidin-2-ylamino]ethylamino]pyridine-3-carbonitrile], in the test on dermomyotome cells, the “induction efficiency from dermomyotome cells into myotome cells” value is listed as “approximately 22%”. For the same molecule, in the test with PAX3-GFP iPS cells, the “DLL1+/PAX3-GFP- cells (induction efficiency)” value worked out at 56.3±3.1%. Besides, the “PAX3-GFP+ cells” value came to 70.7±0.1% in test [1] (5 μM CHIR99021 (C5)) and 0.3±0.0% in test [1] (10 μM CHIR99021 (C10)). For the same molecule, the “PARAXIS and MEOX1 expressions” value in test [1] (S10C5 compared with S10I10 or S10, 4 days, RT-qPCR) is reported as “highly induced”. Besides, the PARAXIS-expressing cells result in test [1] (immunohistochemistry using anti-PARAXIS (TCF15) antibody) was “found”.
With `CC1(C)CCC(C)(C)c2cc(Cn3cccn3)c(/C=C/c3ccc(C(=O)O)cc3)cc21` [R667], in the test on heterotopic ossification, the “inhibition of heterotopic ossification” value was “potent inhibitors”. Also, in test [2] (10 nM, with 30 ng/ml Activin A), the “enhanced chondrogenesis by Alcian Blue staining” value is “inhibition of the enhanced chondrogenesis was also confirmed”. Further, in test [2] (10 nM, with 30 ng/ml Activin A, GAG/DNA), the “enhancement of glycosaminoglycan (GAG) production” value is reported as “significantly inhibited”. Moreover, the “enhancement of chondrogenic marker expressions” value in test [2] (10 nM, with 30 ng/ml Activin A, RT-qPCR) is recorded as “significantly inhibited”.
As to `NC(=O)c1ccc(-c2nc(-c3ccc4c(c3)OCO4)c(-c3ccccn3)[nH]2)cc1` [SB431542], the “PAX3-GFP+ cells” value in test [1] (10 μM SB431542 (S10)) came to 52.1±0.8%.

B1: Activin A: a stimulator of mutant ACVR1; R&D (protein, UniProt P08476 311-426, looked up)
Inhibin beta A chain: GLECDGKVNICCKKQFFVSFKDIGWNDWIIAPSGYHANYCEGECPSHIAGTSGSSLSFHSTVINHYRMRGHSPFANLKSCCVPTKLRPMSMLYYDDGQNIIKKDIQNMIVEECGCS
modifications: Inhibin beta A chain
notes: a stimulator of mutant ACVR1; R&D
B1: the “chondrogenic marker expressions, GAG production and Alcian Blue staining in FOP-iPS-derived vs resFOP-iPS-derived cells” value in test [3] is on record as “no difference”. Further, the “chondrogenesis (chondrogenic markers, GAG production) in FOP-iPS-derived vs resFOP-iPS-derived cells” value in test [2] (30 ng/ml Activin A) was “enhancement of the chondrogenesis was observed”.

The values are drawn from patent US12492378B2, “Stepwise method of producing various types of cells from pluripotent stem cells” (Kyoto University, priority 2018, dated 2025).
